Series [1] has as its target T1, B. subtilis NaMN AT (yqeJ) (Bacillus subtilis, UniProt P54455).
T1 sequence (P54455 with tags, fused parts or gaps): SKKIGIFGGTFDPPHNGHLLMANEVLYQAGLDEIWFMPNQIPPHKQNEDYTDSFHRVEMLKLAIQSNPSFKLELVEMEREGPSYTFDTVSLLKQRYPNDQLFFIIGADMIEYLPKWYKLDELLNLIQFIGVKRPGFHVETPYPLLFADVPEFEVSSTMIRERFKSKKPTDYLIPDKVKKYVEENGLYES
Nature of the series: Continuous coupled assay of the forward reaction (EnzChek pyrophosphate / purine nucleoside phosphorylase). Format: biochemical. The arrangement: made in house; host or cells: E. coli BL21(DE3), vector pML208 (modified pET16b). The text has this:
Continuous assay. A continuous assay to monitor the reaction in the forward direction was based upon the EnzChek pyrophosphate assay from Molecular Probes (Eugene Oreg.) In this assay, inorganic pyrophosphate produced in the forward reaction of yqeJ is cleaved by inorganic pyrophosphatase to phosphate, which is used by the second coupling enzyme, purine nucleoside phosphorylase (PNP), to convert the chromogenic substrate 2-amino-6-mercapto-7-methylpurine ribonucleoside (MESG) to ribose-1-phosphate and 2-amino-6-mercapto-7methylpurine (E360=11,000 M^−1cm^−1). The reaction conditions were 20 mM Hepes pH 7.5, 10 mM MgCl2, 0.2 mM MESG, 1 U PNP, 0.01 U inorganic pyrophosphatase, and 0.03 μg/mL yqeJ. The reaction volume was 125 μL and was carried out in a 96 well plate at room temperature using spectamax384 plus plate reader recording continuously at 360 nm (Molecular Devices, Sunnyvale Calif.). For the KM determinations, NaMN was varied from 25 to 500 μM with ATP held at 2 mM and ATP was varied from 50 to 1000 μM with NaMN held constant at 1 mM. All kinetic constants were determined from non-linear fits of the experimental data using the enzyme kinetic module of Sigmaplot 7.0 (SPSS, Inc. San Rafael Calif.). The reaction conditions were the same for the KM determinations for NMN except the MgCl2 concentration was increased to 50 mM and the yqeJ concentration was increased to 75 μg/mL due to the lower activity against this substrate. […] The data was fit to a model of substrate inhibition using the equation: v=Vmax/(1+KM/S+S/Ki). […] NMN was varied from 0.5 to 10 mM with ATP held constant at 0.6 mM. The kinetic constants of yqeJ using NMN and ATP substrates also was determined with a second coupled assay system, one coupling NAD production to its reduction by alcohol dehyrogenase. This assay was described by Balducci et al (Balducci et al, 1995a) and has been used to characterize other NMN ATase. Using this assay, very similar values of KM and Vmax for NMN were obtained as was determined with the PNP coupled assay described above. The alcohol dehyrogenase coupled assay was not suitable to assays NaMN as a substrate, presumably because NaAD is not a good substrate for alcohol dehydrogenase.

The target of series [2] is T1, B. subtilis NaMN AT (yqeJ). Nature of the series: Back reaction coupled enzyme assay (hexokinase / glucose-6-phosphate dehydrogenase). The text has this: The back reaction for yqeJ NaMN AT was monitored using the coupled enzyme assay of hexokinase and glucose-6-phosphate dehydrogenase (from yeast). […] The ATP is then used by hexokinase to phosphorylate glucose to give glucose-6-phosphate and ADP. Glucose-6-phosphate is oxidized to 6-phospho-glucono-δ-lactone by glucose-6-phosphate dehydrogenase and NADP is reduced to NADPH. The assay is followed by the absorbance of NADPH at 340 nm. Glucose-6-phosphate dehydrogenase from baker's yeast was used because this enzyme prefers NADP to NAD as a co-substrate. Assay conditions were: 20 mM HEPES pH 7.5, 50 mM MgCl2, 1 mM NaPPi, 10 mM KCl, 5 U hexokinase, 5 U glucose-6-phosphate dehydrogenase, 1 mM glucose, 0.5 mM NADP+.

The target in a further series is T2, yqeJ NaMN AT (Bacillus subtilis, UniProt P54455).
T2 construct: made in house; host or cells: E. coli BL21(DE3), vector pML208 (modified pET16b)
The series is described as follows: Discontinuous HPLC adenylyl transferase assay. Format: biochemical. To be noted: 30 minutes, 37° C. How it is done: FIGS. 3A, 3B, 3C and 3D provides the results of HPLC analysis of yqeJ NaMN AT adenylyl transferase activity. 0.36 mg/ml yqeJ NaMN AT was incubated with 1 mM ATP and 1 mM NaMN (3A) or 1 mM NMN (3B) for 30 minutes.
Discontinuous HPLC assay. The discontinuous HPLC assay is based upon the assays published by Mehl et al. (12) and Balducci et al. (18). Reaction conditions were 20 mM Hepes, pH 7.4, 10 mM MgCl2, and 0.36 or 0.18 mg/ml yqeJ protein incubated at 37° C. For the forward reaction, the incubations contained 1 mM ATP and 1 mM NaMN or NMN. […] The reactants and products were separated by chromatography on a 3.9×150 mm C18 column (Novapack 5 μm, Waters Inc). Buffer A 100 mM potassium phosphate pH 7.5. Buffer B 100 mM potassium phosphate pH 7.5 in 20% MeOH. The elution conditions were: 0 to 3 min in 100% A, 3.0 to 3.1 min to 100% B, 3.1 to 7 min 100% B. The absorbance of reactants and products was detected at 254 nm.

Substrate in series [3]: NC(=O)c1ccc[n+]([C@@H]2O[C@H](COP(=O)([O-])OP(=O)(O)OC[C@H]3O[C@@H](n4cnc5c(N)ncnc54)[C@H](O)[C@@H]3O)[C@@H](O)[C@H]2O)c1
The series is described as follows: purified protein, by the assay type. To be noted: other: back reaction; at subsaturating concentrations of PPi (1 mM); pH 7.5.

Substrate in series [4]: O=P(O)(O)OP(=O)(O)O
Nature of the series: purified protein, by the assay type. To be noted: other: back reaction; at saturating concentrations of NaAD (500 μM); pH 7.5.

Substrate in series [5]: NC(=O)c1ccc[n+]([C@@H]2O[C@H](COP(=O)([O-])O)[C@@H](O)[C@H]2O)c1
The series is described as follows: Continuous coupled assay of the forward reaction (EnzChek pyrophosphate / purine nucleoside phosphorylase). The format is biochemical, Bacillus subtilis. The note with it: other: forward reaction; mononucleotide substrate varied, ATP held constant (2 mM for NaMN, 0.6 mM for NMN); NMN fit to substrate inhibition equation; pH 7.5. The source says:
Continuous assay. A continuous assay to monitor the reaction in the forward direction was based upon the EnzChek pyrophosphate assay from Molecular Probes (Eugene Oreg.) In this assay, inorganic pyrophosphate produced in the forward reaction of yqeJ is cleaved by inorganic pyrophosphatase to phosphate, which is used by the second coupling enzyme, purine nucleoside phosphorylase (PNP), to convert the chromogenic substrate 2-amino-6-mercapto-7-methylpurine ribonucleoside (MESG) to ribose-1-phosphate and 2-amino-6-mercapto-7methylpurine (E360=11,000 M^−1cm^−1). The reaction conditions were 20 mM Hepes pH 7.5, 10 mM MgCl2, 0.2 mM MESG, 1 U PNP, 0.01 U inorganic pyrophosphatase, and 0.03 μg/mL yqeJ. The reaction volume was 125 μL and was carried out in a 96 well plate at room temperature using spectamax384 plus plate reader recording continuously at 360 nm (Molecular Devices, Sunnyvale Calif.). […] All kinetic constants were determined from non-linear fits of the experimental data using the enzyme kinetic module of Sigmaplot 7.0 (SPSS, Inc. San Rafael Calif.). […] The kinetic constants of yqeJ using NMN and ATP substrates also was determined with a second coupled assay system, one coupling NAD production to its reduction by alcohol dehyrogenase. […] Using this assay, very similar values of KM and Vmax for NMN were obtained as was determined with the PNP coupled assay described above. […]

Where [6] appears, read: forward reaction, at saturating concentrations of NaMN.
Setting [7] is: back reaction, at subsaturating concentrations of PPi (1 mM).
The mark [8] stands for this setting: forward reaction: 1 mM ATP and 1 mM substrate, 0.36 mg/ml yqeJ.

Take `Nc1ncnc2c1ncn2[C@@H]1O[C@H](COP(=O)(O)OP(=O)(O)OP(=O)(O)O)[C@@H](O)[C@H]1O` [ATP]: in series [1] (setting [6]), the Michaelis constant (Km) was 135 µM and the maximal velocity (Vmax) came out at 10.1 ± 0.4 µmol/min/mg.

With `Nc1ncnc2c1ncn2[C@@H]1O[C@H](COP(=O)(O)OP(=O)(O)OC[C@H]2O[C@@H]([n+]3cccc(C(=O)O)c3)[C@H](O)[C@@H]2O)[C@@H](O)[C@H]1O` [NAAD, nicotinic acid adenine dinucleotide], in series [2] (setting [7]), the Km stood at 6.8 µM and the Vmax was 2.8 ± 0.2 µmol/min/mg. Moreover, in series [2] (reverse reaction, NaAD over NAD), the “preference (Vmax/KM ratio) for nicotinic acid over nicotinamide containing substrate” value is 2,000 to 1. Moreover, on yqeJ NaMN AT (reverse reaction: 1 mM sodium pyrophosphate and 0.5 mM substrate, 0.18 mg/ml yqeJ), the “conversion of substrate by yqeJ, detected by HPLC” value (“conversion of substrate by yqeJ” below) was “converted to NaMN and ATP”.

As to `NC(=O)c1ccc[n+]([C@@H]2O[C@H](COP(=O)([O-])O)[C@@H](O)[C@H]2O)c1` [NMN, Nicotinamide Mononucleotide], the “conversion of substrate by yqeJ” value on yqeJ NaMN AT (setting [8]) is on record as “a new peak that eluted with NAD”. In series [1], this molecule came in with a Ki of 17 mM.

Regarding `O=C(O)c1ccc[n+]([C@@H]2O[C@H](COP(=O)(O)O)[C@@H](O)[C@H]2O)c1` [NaMN, nicotinic acid mononucleotide], on yqeJ NaMN AT (setting [8]), the “conversion of substrate by yqeJ” value is “formation of a new peak as detected by HPLC that eluted with the NaAD standard”. The “preference (Vmax/KM ratio) for nicotinic acid over nicotinamide containing substrate” value in series [1] (forward reaction, NaMN over NMN) was 12,900 to 1. Moreover, in series [1] (forward reaction, mononucleotide substrate varied, ATP held constant), the maximum rate (Vmax) was determined as 11.1 ± 0.7 µmol/min/mg. The Km in series [1] (forward reaction, mononucleotide substrate varied, ATP held constant (2 mM for NaMN, 0.6 mM for NMN), NMN fit to substrate inhibition equation) was determined as 43 µM.

B1: B. subtilis NaMN AT (yqeJ) (Bacillus subtilis subsp. subtilis str. 168) (protein)
chain: T1 sequence (P54455 with tags, fused parts or gaps)
notes: made in house; host or cells: E. coli BL21(DE3), vector pML208 (modified pET16b)
Turning to B1, the Km in series [3] was determined as 1.7 ± 0.2 mM; in series [4] it was 4.2 ± 0.6 mM; in series [5], 2.3 ± 0.2 mM. For the same molecule, the Vmax in series [3] is 0.34 µmol/min/mg; in series [5], 0.054 µmol/min/mg.

What is called Km is the concentration of substrate that gives half-maximal velocity. What is called Vmax is the rate approached at saturating substrate. For orientation: Ki means a measure of affinity in units of concentration, obtained from inhibition or displacement.
